Columns and labels:
CD34+ HSPCs = assay: HSPC expansion and HSPC-pDC differentiation culture (cell numbers, viability, HSPC-pDC yield); assay type: cell-based, human
Description: Depending on optimization regiments, freshly or cryo-preserved HSPCs from various sources were differentiated to HSPC-pDCs using different types of medium. For STD and LD/RPMI conditions, HSPCs were cultured in RPMI 1640 (Lonza) supplemented with 10% heat-inactivated fetal calf serum (FCS) (HyClone®), 600 μg/mL L-Glutamine (Sigma), 200 U/mL penicillin and 100 μg/mL streptomycin (Gibco®, Life Technologies). For STD conditions, HSPCs were cultured at a fixed volume during pDC differentiation, versus a fixed density of 0.5-5×10^6 cells/mL for the LD condition. For serum-free (SFEM II) or CGMP serum-free medium (DC medium) conditions, HSPCs were cultured in SFEM II or DC medium at low density (0.5-5×10^6 cells/mL). […] All cytokines are from Peprotech. In addition, the small molecule inhibitor StemRegenin 1 (SR1, […] Technologies) was added at a concentration of 1 μM. For serum-free medium conditions, a concentration of 20 μg/mL streptomycin and 20 U/mL penicillin (Gibco, Life Technologies) was added. Moreover, for the CGMP DC medium condition, 50 μg/mL of ascorbic acid was added. Cells were cultured at 37° C., 95% humidity, and 5% CO2 for up to 21 days depending on optimizations. For the fixed density conditions, medium was replenished every 2-4 day depending on the growth of the HSPCs. Total cell numbers during expansion and differentiation of HSPCs was determined using a TC20 Automated Cell Counter (Bio-Rad). At the end of culture, HSPC-pDCs were enriched using a negative selection kit, according to manufacturer's instructions (EasySep Human Plasmacytoid Dendritic Cell Enrichment kit, […] Technologies).
De-identified umbilical cord blood (UCB) samples were obtained following scheduled caesarean section deliveries of healthy infants at Department of Gynecology and Obstetrics, Skejby University Hospital. Consent was obtained from the mothers. CD34^+ cord blood HSPCs (CB-HSPC) were subsequently purified using EasySep Human Cord Blood CD34 Positive Selection kit II, according to manufacturer's instructions ([…] Technologies). Briefly, a pre-enrichment of CD34+ cells was performed were bi-specific antibodies targeting unwanted cells were used during standard Ficoll-Hypaque (GE Healthcare) density-gradient centrifugation. CD34+ cells were subsequently isolated using anti-CD34 immunomagnetic beads (positive selection). CD34^+ CB HSPCs were either freshly used or cryo-preserved until use.

HSPC-pDCs = assay: Phenotypic analysis of pDC surface markers by flow cytometry; assay type: cell-based, human; settings: pDCs isolated from AA-supplemented culture at day 16
Description: Flow cytometry was used to immunophenotype pDCs. Briefly, cells were spun down and resuspended in 100 μL PBS. Cells were stained with Ghost Dye Red 780 Viability Dye (13-0865, Tonbo) for 30 min before being washed with FACS buffer (PBS with 2% FCS and 1 mM EDTA). Cells were subsequently resuspended in 50 μL FACS buffer and stained with the following antibodies: FITC anti-human Lineage Cocktail (CD3 (UCHT1), CD14 (HCD14), CD16 (3G8), CD19 (HIB19), CD20 (2H7) and CD56 (HCD56), 348801, BioLegend), APC anti-human CD11c (3.9, 20-0116-T100, TonboBio), PE anti-human CD123 (6H6, 12-1239-42, eBioscience), PE-Cy7 anti-human CD303 (201a, 25-9818-42, eBioscience). Cells were stained for 30 min before being washed three times in FACS buffer. To validate the expression CD34+ on HSPCs, cells were stained with PE-Cy7 anti-human CD34 (581, 343516, BioLegend) for 30 min, washed three times in FACS buffer before being resuspended in FACS buffer. PI was added to the cells as a viability dye in a concentration of 1:100 (13-6990 Tonbo Bioscience). Fluorescence intensities were measured using the Quanteon flow cytometer equipped with 4 lasers (405 nm, 488 nm, 561 nm, and 637 nm) and 29 photomultipliers (PMT) detectors or the NovoCyte flow cytometer with two lasers (488 nm and 561 nm) and 12 PMT detectors (ACEA Biosciences, Inc.). Data analysis was done using FlowJo (Version 10, Tree Star, Ashland, OR, USA). […]

`O=C1O[C@H]([C@@H](O)CO)C(O)=C1O` [ascorbic acid] was tested, and the “viability of HSPC-pDCs isolated at day 21” value (CD34+ HSPCs; AA addition versus 72.8%±3.2% for DC medium alone) was 92.0%, the “percentage of HSPC-pDCs of the total population of cells” value (CD34+ HSPCs; AA supplementation of DC medium) was “without affecting” and the “yield of HSPC-pDCs isolated at day 21” value (CD34+ HSPCs; DC medium+AA versus 0.5×10^9+0.3×10^9 for DC medium alone) was 1.0×10^9 HSPC-pDCs per 0.1×10^6 CD34+ H. For the same compound, the “expansion during HSPC-pDC differentiation” value (CD34+ HSPCs; DC medium+AA versus 13,456 fold (±6,953) for DC medium alone, 1×10^5 HSPCs seeded) was 33,554 fold, the “viability of expanding HSPCs during culture” value (CD34+ HSPCs; DC medium+AA vs DC medium alone, in particular Day 12+) was “significantly improved” and the “surface expression levels of CD303” value (HSPC-pDCs) was “lower expression levels”.
